In ChEMBL document CHEMBL1122891, “Substituted 5H-dibenz[b,g]-1,4-oxazocines and related amino acids with antiinflammatory activity” (1985):

How the values were obtained:
Assay type in all cases: functional
Rattus norvegicus [1] = test: Percent reduction in swelling of the left hind paw in rat determined in adjuvant arthritis test, 25 mg/kg dose was perorally; details: route oral
Rattus norvegicus [2] = test: Percent reduction in swelling of the left hind paw in rat when 100 mg/kg of dose was injected perorally which was determined in adjuvant arthritis test; details: route oral
Rattus norvegicus [3] = test: Minimum ulcerogenic dose was evaluated 24 hours after peroral administration; value may range from 50-100
Rattus norvegicus [4] = test: Percent reduction in swelling of the left hind paw in rat when 10 mg/kg of dose was injected perorally which was determined in adjuvant arthritis test; details: route oral
Rattus norvegicus [5] = species: Rattus norvegicus; test: Activity relative to fenclofenac determined in adjuvant arthritis test
Rattus norvegicus [6] = test: Minimum ulcerogenic dose was evaluated 24 hours after peroral administration; value may range from 25-50
Rattus norvegicus [7] = test: Percent reduction in swelling of the left hind paw in rat determined in adjuvant arthritis test, 50 mg/kg dose perorally; details: route oral
Rattus norvegicus [8] = test: Minimum ulcerogenic dose was evaluated 24 hours after peroral administration; value may range from 100-200
Rattus norvegicus [9] = test: Minimum ulcerogenic dose was evaluated 24 hours after peroral administration
Rattus norvegicus [10] = test: Minimum ulcerogenic dose was evaluated 24 hours after peroral administration; value may range from 400-800

O=C(O)Cc1ccccc1Oc1c([N+](=O)[O-])ccc(Cl)c1Cl
Reduction (Rattus norvegicus [1]): 25%

O=[N+]([O-])c1cccc(Cl)c1Oc1ccccc1CCO
Reduction (Rattus norvegicus [2]): 37%
MUD (Rattus norvegicus [3]): 50 mg/kg

Nc1cccc(Cl)c1Oc1ccccc1CC(=O)OC1OC(=O)c2ccccc21 (stereo not given)
Reduction (Rattus norvegicus [2]): 36%

Cc1cc(Cl)cc(N)c1Oc1ccccc1CC(=O)O
Reduction (Rattus norvegicus [4]): 34%
Relative potency (Rattus norvegicus [5]): 5.6
MUD (Rattus norvegicus [6]): 25 mg/kg

COC(=O)Cc1ccccc1Oc1c(N)cccc1Cl
Reduction (Rattus norvegicus [1]): 35%

Clc1ccc2c(c1)Oc1c(Cl)cccc1NCC2
Reduction (Rattus norvegicus [7]): 10%

Cc1cc(N)c(Oc2ccc(Cl)cc2CC(=O)O)c(Cl)c1
Relative potency (Rattus norvegicus [5]): 1.4
Reduction (Rattus norvegicus [1]): 32%

COC(=O)Cc1ccccc1Oc1c(Cl)cc(Cl)cc1N(C)C
Reduction (Rattus norvegicus [4]): 33%
Relative potency (Rattus norvegicus [5]): 2.7

Nc1cccc(Cl)c1Oc1ccccc1CC(=O)O
Relative potency (Rattus norvegicus [5]): 3.5
MUD (Rattus norvegicus [6]): 25 mg/kg
Reduction (Rattus norvegicus [1]): 36%

O=C(O)Cc1ccccc1Oc1c(Cl)cc(Cl)cc1[N+](=O)[O-]
Reduction (Rattus norvegicus [1]): 36%

CCC(C)c1cc(Cl)c2c(c1)NCCc1cc(C)ccc1O2 (stereo not given)
Reduction (Rattus norvegicus [7]): 14%

Cc1cc(Cl)cc2c1Oc1ccccc1CCN2
Relative potency (Rattus norvegicus [5]): 0.9
Reduction (Rattus norvegicus [7]): 32%

Cc1c(Cl)ccc(N)c1Oc1ccccc1CC(=O)O
MUD (Rattus norvegicus [8]): 100 mg/kg
Relative potency (Rattus norvegicus [5]): 4.1
Reduction (Rattus norvegicus [1]): 34%

CNc1cccc(Cl)c1Oc1ccccc1CC(=O)O
Relative potency (Rattus norvegicus [5]): 15
MUD (Rattus norvegicus [9]): <12.5 mg/kg

Cc1cccc(N)c1Oc1ccccc1CC(=O)O
Relative potency (Rattus norvegicus [5]): 1.9
MUD (Rattus norvegicus [10]): 400 mg/kg
Reduction (Rattus norvegicus [1]): 32%

Cc1ccc2c(c1)CCNc1cc(Cl)cc(Cl)c1O2
Reduction (Rattus norvegicus [7]): 17%

Nc1cccc(F)c1Oc1ccccc1CC(=O)O
Reduction (Rattus norvegicus [1]): 27%

C[N+]1([O-])CCc2ccccc2Oc2c(Cl)cccc21 (stereo not given)
Relative potency (Rattus norvegicus [5]): 0.7
Reduction (Rattus norvegicus [1]): 23%

CCC(C)c1cc(N)c(Oc2ccc(C)cc2CC(=O)O)c(Cl)c1 (stereo not given)
Reduction (Rattus norvegicus [4]): 10%

Nc1c(Cl)c(Cl)cc(Cl)c1Oc1ccccc1CC(=O)O
Reduction (Rattus norvegicus [4]): 37%
Relative potency (Rattus norvegicus [5]): 11.6
MUD (Rattus norvegicus [3]): 50 mg/kg

O=C(c1ccc(Cl)cc1)N1CCc2ccccc2Oc2c(Cl)cc(Cl)cc21
Reduction (Rattus norvegicus [7]): 0%

CCOC(=O)N1CCc2ccccc2Oc2c(Cl)cc(Cl)cc21
Reduction (Rattus norvegicus [4]): 21%
Relative potency (Rattus norvegicus [5]): 0.5

Cc1cc(N)c(Oc2ccc(C)cc2CC(=O)O)c(Cl)c1
Reduction (Rattus norvegicus [1]): 3%

C/C=C/CN1CCc2ccccc2Oc2c(Cl)cc(Cl)cc21
Reduction (Rattus norvegicus [7]): 21%

O=C(O)Cc1ccccc1Oc1c(Cl)cc(Cl)c(Cl)c1[N+](=O)[O-]
Reduction (Rattus norvegicus [4]): 30%

Clc1ccc2c(c1)CCNc1cccc(Cl)c1O2
Reduction (Rattus norvegicus [7]): 16%

CCN(CC)C(=O)Cc1ccccc1Oc1c(N)cccc1Cl
Reduction (Rattus norvegicus [7]): 6%

Nc1cc(Cl)c(Cl)c(Cl)c1Oc1ccccc1CC(=O)O
Reduction (Rattus norvegicus [4]): 33%
Relative potency (Rattus norvegicus [5]): 8.2

Cc1cc(Cl)cc([N+](=O)[O-])c1Oc1ccccc1CC(=O)O
Relative potency (Rattus norvegicus [5]): 3.3
Reduction (Rattus norvegicus [1]): 34%

Oc1ccc2c(c1)CCNc1cc(Cl)cc(Cl)c1O2
Reduction (Rattus norvegicus [4]): 2%

CC(=O)NNC(=O)N1CCc2ccccc2Oc2c(Cl)cc(Cl)cc21
Reduction (Rattus norvegicus [2]): 18%

Nc1ccc(Cl)c(Cl)c1Oc1ccccc1CC(=O)O
Reduction (Rattus norvegicus [1]): 33%

Nc1cc(C(F)(F)F)ccc1Oc1ccccc1CC(=O)O
Reduction (Rattus norvegicus [2]): 36%
Relative potency (Rattus norvegicus [5]): 2.1
MUD (Rattus norvegicus [10]): 400 mg/kg

C=CCN1CCc2ccccc2Oc2c(Cl)cc(Cl)cc21
Reduction (Rattus norvegicus [7]): 18%

Cc1ccc(Oc2cc(Cl)c(Cl)cc2N)c(CC(=O)O)c1
Reduction (Rattus norvegicus [1]): 10%

CNc1cccc(C)c1Oc1ccccc1CC(=O)O
Relative potency (Rattus norvegicus [5]): 6.5
MUD (Rattus norvegicus [6]): 25 mg/kg
Reduction (Rattus norvegicus [1]): 46%

Clc1cc(Cl)c2c(c1)N(Cc1ccccc1)CCc1ccccc1O2
Reduction (Rattus norvegicus [4]): 2%

COC(=O)Cc1ccccc1Oc1c(Cl)cccc1[N+](=O)[O-]
Reduction (Rattus norvegicus [1]): 31%

Cc1cc(Cl)c2c(c1)NCCc1cc(Cl)ccc1O2
Reduction (Rattus norvegicus [2]): 21%
Relative potency (Rattus norvegicus [5]): 0.5

Nc1cccc(N)c1Oc1ccccc1CC(=O)O
Reduction (Rattus norvegicus [1]): 5%

Cc1c(Cl)c(C)c2c(c1Cl)Oc1ccccc1CCN2
Reduction (Rattus norvegicus [7]): 6%

O=C(O)Cc1ccccc1Oc1ccccc1[N+](=O)[O-]
Reduction (Rattus norvegicus [7]): 1%

O=C(O)Cc1ccccc1Oc1ccc(C(F)(F)F)cc1[N+](=O)[O-]
Reduction (Rattus norvegicus [2]): 29%

O=C(O)Cc1ccccc1Oc1cc(Cl)cc(Cl)c1[N+](=O)[O-]
Reduction (Rattus norvegicus [4]): 34%
Relative potency (Rattus norvegicus [5]): 2.9

CC(C)(C)OC(=O)Cc1ccccc1Oc1c(Cl)cccc1[N+](=O)[O-]
Reduction (Rattus norvegicus [7]): 21%

NC(=O)Cc1ccccc1Oc1c(N)cccc1Cl
Reduction (Rattus norvegicus [7]): 14%

CNC(=O)N1CCc2ccccc2Oc2c(Cl)cc(Cl)cc21
Reduction (Rattus norvegicus [4]): 4%

Clc1ccc2c(c1)CCNc1c(Cl)ccc(Cl)c1O2
Reduction (Rattus norvegicus [7]): 14%

CNc1cc(Cl)cc(C)c1Oc1ccccc1CC(=O)O
Reduction (Rattus norvegicus [4]): 28%
Relative potency (Rattus norvegicus [5]): 2.8
